Test results from paper PMC4633953, “FR171456 is a specific inhibitor of mammalian NSDHL and yeast Erg26p” (Nature Communications, 2015).

Columns and labels:
[1] = test system: F. solani; test: Combination with clinical antifungal agents (Loewe synergy, growth by OD530); format: cell-based; details: in presence of FR171456 6.67 and 20 μM
Protocol: incubated for 24 h in increasing combined doses of FR171456 and Amphotericin B, and growth
assessed by OD530. (a) Normalised growth rates plotted as % inhibition of growth. (b) Loewe excess
heat map showing difference between predicted scores based upon the addition of each agent
alone and the actual values detected plotted as difference in % of inhibition. (c) Loewe isobologram
- a comparison of the doses of each compound needed to achieve 50% inhibition of proliferation.

[2] = test system: S. cerevisiae (BY4743 strain); test: Yeast growth inhibition dose response (OD600); format: cell-based; details: Saccharomyces cerevisiae, 14 h, BY4743, 14 h, 30 °C, YPD, 2% DMSO
Protocol: Figure 2 FR171456 targets Erg26p in S. cerevisiae. (a) Structures of FR171456, and two related triterpenes (compound 1, compound 2). (b) Duplicate 12-point Dose response curves of wild-type diploid yeast with three compounds in a. Strain BY4743 was grown for 14 h at 30 °C in YPD media with 2% DMSO containing a dilution series of FR171456: black; Compound-1: light grey circles, and Compound-2: light grey squares. Y axis: OD600 absorbance indicating yeast growth, x axis: compound concentrations (log10 μM). (c) Haploinsufficiency and homozygous profiling (HIP resp. HOP) for FR171456 at 4 μM. Each mutant strain in the pool is represented by a circle (non-essential genes) or a square (essential genes). The, y axis represents strain sensitivity and x axis represents z-score (specificity). In (d), the z-scores of the HIP pool strains (y axis) plotted against increasing doses of FR171456 (x axis; μM). (e) Relative compound sensitivity profile of the erg26Δ/ERG26 strain across HIP experiments performed with 1,800 diverse small molecule yeast proliferation inhibitors. TEXT PRINTED IN THE PICTURE: (a) FR171456: MW 516.68; S.c. […] IC50 >200 μM | (a) Compound 2: MW 532.68; S.c. IC50 >200 μM

[3] = molecular target: T1, Erg26p (Saccharomyces cerevisiae, UniProt P53199); test: In vitro microsomal Erg26p activity assay (GC-MS)
T1 sequence (P53199 1-349): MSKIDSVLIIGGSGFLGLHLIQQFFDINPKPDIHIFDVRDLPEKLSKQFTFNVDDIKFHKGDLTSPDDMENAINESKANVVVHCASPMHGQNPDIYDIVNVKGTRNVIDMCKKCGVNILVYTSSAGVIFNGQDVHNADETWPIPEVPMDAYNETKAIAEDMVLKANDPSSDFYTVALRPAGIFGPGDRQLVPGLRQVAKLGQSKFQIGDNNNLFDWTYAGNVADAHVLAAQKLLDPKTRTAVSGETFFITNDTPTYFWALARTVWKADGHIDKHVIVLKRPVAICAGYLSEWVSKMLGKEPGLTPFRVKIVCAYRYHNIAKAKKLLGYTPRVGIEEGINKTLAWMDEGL
Protocol: To test this hypothesis an in vitro microsomal Erg26p activity assay[30] was used. Erg26p activity was directly assessed in the presence of increasing concentrations of FR171456 (10 nM–0.1 mM) in the presence of 150 μM carboxysterol substrate (Fig. 1c) and the cofactor NAD^+ (0.5 mM) followed by GC-MS detection of the product 4α-methyl-cholest-8,24-dien-3-one.
Wild-type yeast (FL200) microsomes were prepared as follows. Yeast cells were disrupted by glass bead homogenization (0.45-mm diameter) in 100 mM phosphate buffer (pH 7.5) containing 1.5 mM reduced glutathione and 30 mM nicotinamide for 8 min at 0 °C[44]. The cell extract was obtained by centrifugation at 10,000 × g for 20 min. Microsomes were then isolated by centrifuging the cell extract supernatant at 100,000 × g for 90 min. The resulting microsomal pellet was resuspended in 100 mM phosphate buffer (pH 7.5) containing 3 mM reduced glutathione and 20% glycerol (v/v) using an Elvehjem–Potter homogenizer. Yeast microsomes (1.2 mg of protein) were incubated in the presence of 4α-carboxy-4β-methyl-cholest-8,24-dien-3β-ol (50–300 mM) and NAD^+ (0.5 mM) for 35–45 min at 30 °C. After addition of coprostanone (2–6 μg) as internal standard, the reactions were extracted as described previously[12]. The extract was analysed by TLC on silica gel and eluted twice with CH2Cl2. The fraction migrating between a standard of 4-desmethyl-sterone (RF= 0.50) and 4,4-dimethyl-sterone (RF=0.70) was eluted and analysed using a GC-MS spectrometer (Agilent 5973 N).
In the case of inhibition assays, microsomes were incubated for 35–45 min at 30 °C in the presence of 4α-carboxy-4β-methyl-cholest-8,24-dien-3β-ol (50–300 mM) and a range of inhibitor concentration (0.01–100 μM) from which a dose–response curve was obtained allowing the corresponding I50 values to be determined.
The GC-MS spectrometer (Agilent 5973 N) was equipped with an ‘on column' injector and a capillary column (30 × 0.25 mm) coated with DB5 (H2 flow rate of 2 ml min^−1). The temperature program included a 30 °C min^−1 increase from 60 °C to 240 °C, and followed by a 2 °C/min increase from 240 °C to 280 °C. The areas of the GC peaks of coprostanone (tR=1.000) and of the produced 4α-methyl-cholest-8,24-dien-3-one (tR=1.139), corrected from endogenous component of the same tR (1.139) determined in the blank (boiled microsomes), allowed the rate of transformation of 4α-carboxy-4β-methyl-cholest-8,24-dien-3β-ol to be measured. Under these conditions, the estimated limit of detection of the 3βHSD/D activity was 0.1 nmol h^−1 mg^−1.

[4] = molecular target: T1, Erg26p; details: wild-type yeast Erg26p ref 32; cited from earlier work
[5] = test system: ergosterol pathway intermediates in C. albicans SC5314; test: Focused metabolomics: 13C-labelled ergosterol pathway intermediates in C. albicans; format: cell-based; details: increasing doses
Protocol: For ^13C- labelling studies, the wild type C. albicans strain SC5314 was obtained from ATCC (Manassas, VA) and was cultured at 30 °C in YPD broth (1% yeast extract, 2% peptone, 2% dextrose) or Synthetic Medium (3% glycerol, 0.1% glucose, 65 mM NH4Cl, 1.7 mM NaCl, 7 mM KH2PO4, 1 mM CaCl2, 0.5 mM MgSO4).
Approximately 1.25 × 10^8 C. albicans cells from a saturated YPD culture were inoculated into 100 ml Synthetic Medium (SM) and grown at 30 °C to an OD of 1.0. Cells were washed once in modified SM (25 mM KPO4 pH 7.0, with glucose omitted) and suspended to 5 OD600 units per ml in modified SM.
Labelling reactions were performed in 12-ml glass tubes with PTFE-lined caps (Corning) and containing 1 ml cell suspension (∼6 × 10^7 cells), 10 μl DMSO or 10 μl compound dissolved in DMSO, 12 μl 1M D-Glucose (U^-13C6 glucose), and 10 μl 1 M (1,2^-13C2) sodium acetate (Cambridge Isotope Laboratories, Inc). Before LC-MS analysis, dried lipid extracts were dissolved in 500 μl methanol, vortexed and sonicated for 10 min.
Squalene, ergosterol, lanosterol and zymosterol were quantified using the tandem mass spectrometer API4000 triple quadrupole (AB Sciex) with atmospheric pressure chemical ionization (APCI), interfaced to an Agilent LC.
Cells (∼6 × 10^7) and compounds were preincubated 15 min at 30 °C (without shaking) before the addition of labelled substrates. Labelling was performed at 30 °C with shaking for 4 h. Reactions were stopped by adding 1 ml 30% KOH, 1 ml 100% ethanol, and 0.2 ml 2% pyrogallol. Samples were mixed and then heated at 80 °C for 30 min, then cooled to room temperature. Non-saponifiable lipids were extracted two times in petroleum ether, washed with water, dried under nitrogen gas and stored at −80 °C.
For compound calibration, 2 μM solutions in 0.1% formic acid were directly infused into the mass spectrometer. Ergosterol, lanosterol and zymosterol undergo dehydration and their molecular species are detected as [M+H-H2O]^+ while squalene is detected as [M+H]^+. Supplementary Table 4 lists the multiple reaction monitoring parameters of the sterols and squalene, as well as the ^13C incorporated metabolites. The mass spectrometer source parameters are the following: CUR=40, GS1=60, NC=4.5. TEM=450 CAD=4. A mobile phase of 0.2% formic acid in methanol and isocratic run at 0.4 ml min^−1 was employed to separate the metabolites on a Waters XBridge C18 3.5 μm 2.1 × 50 mm column. The run time was 4.5 min.

## C[C@@H]1[C@H](O)[C@@H](C)/C=C/C=C/C=C/C=C/C=C/C=C/C=C/[C@H](O[C@@H]2O[C@H](C)[C@@H](O)[C@H](N)[C@@H]2O)C[C@@H]2O[C@](O)(C[C@@H](O)C[C@@H](O)[C@H](O)CC[C@@H](O)C[C@@H](O)CC(=O)O[C@H]1C)C[C@H](O)[C@H]2C(=O)O [Amphotericin B, reference compound]
[1]
  amount of Amphotericin B required for maximal inhibition: halved

## C=C(CCC(C)C1CCC2C1(C)CC(O)C13CC14C(=O)CC(O)C(C)(C(=O)NCc1ccccc1)C4C(=O)CC23O)C(C)C [Compound 1, (1R,2aR,3R,5aR,5bS,7aR,8S,9S,11aS,12aR)-N-benzyl-1,5b,9-trihydroxy-2a,8-dimethyl-3-((R)-6-methyl-5-methyleneheptan-2-yl)-7,11-dioxohexadecahydrocyclopenta[a]cyclopropa[e]phenanthrene-8-carboxamide]
[2]
  IC50: > 200 µM
[3]
  IC50: > 500 µM
  decrease of inhibition relative to FR171456: > 300 fold

## C=C(CCC(C)C1CCC2C1(C)CC(O)C13CC14C(=O)CC(O)C(C)(C(=O)O)C4C(=O)CC23O)C(C)CO [Compound 2, (1R,2aR,3R,5aR,5bS,7aR,8S,9S,11aS,12aR)-1,5b,9-trihydroxy-3-((2R)-7-hydroxy-6-methyl-5-methyleneheptan-2-yl)-2a,8-dimethyl-7,11-dioxohexadecahydrocyclopenta[a]cyclopropa[e]phenanthrene-8-carboxylic acid]
[2]
  IC50: > 200 µM

## CC(C)=CCC[C@@H](C)[C@H]1CC[C@H]2C3=C(CC[C@]12C)[C@@]1(C)CC[C@H](O)[C@@](C)(C(=O)O)C1CC3 (stereo partly drawn) [carboxysterol substrate, 4α-carboxy-4β-methyl-cholest-8,24-dien-3β-ol]
[4]
  Km: 550 µM

## OC(Cn1cncn1)(Cn1cncn1)c1ccc(F)cc1F [fluconazole, reference compound]
[5]
  effect on 13C-labelled ergosterol: decrease
  effect on 13C-labelled lanosterol: accumulation
  effect on 13C-labelled zymosterol: decrease
